Values joined by “and” are separate entries in the source; they are usually repeats but may differ in a detail not shown here. Identical values can stand only once.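 A five-concentration, 48-hour dose response in 96-well plates underlies each endpoint, interpolated linearly between surrounding concentrations. GI50 marks 50% less growth. TGI is the concentration that stops growth completely.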
What was measured:
Test in all cases: DTP human tumour cell line panel, 48 h
HOP-92 NSCLC = tested on: HOP-92 NSCLC
A549 NSCLC = tested on: A549 NSCLC
A498 renal = tested on: A498 renal
SK-MEL-5 melanoma = tested on: SK-MEL-5 melanoma
NCI-H522 lung = tested on: NCI-H522 lung
SW-620 colon = tested on: SW-620 colon
NCI-H226 lung = tested on: NCI-H226 lung
HT29 colon = tested on: HT29 colon
EKVX NSCLC = tested on: EKVX NSCLC
RPMI-8226 leukemia = tested on: RPMI-8226 leukemia

SMILES | TGI (HOP-92 NSCLC) | TGI (A549 NSCLC) | TGI (A498 renal) | TGI (SK-MEL-5 melanoma) | TGI (NCI-H522 lung) | TGI (SW-620 colon) | TGI (NCI-H226 lung) | TGI (HT29 colon) | TGI (EKVX NSCLC) | GI50 (HOP-92 NSCLC) | GI50 (A549 NSCLC) | GI50 (A498 renal) | GI50 (SK-MEL-5 melanoma) | GI50 (NCI-H522 lung) | GI50 (SW-620 colon) | GI50 (RPMI-8226 leukemia) | TGI (RPMI-8226 leukemia) | GI50 (NCI-H226 lung) | GI50 (HT29 colon) | GI50 (EKVX NSCLC)
O=C1CCCC1NC(=O)C(F)(F)F (stereo not drawn) | > 100 µM | > 100 µM | > 100 µM | > 100 µM | > 100 µM | > 100 µM | > 100 µM | > 100 µM | > 100 µM | – | – | – | – | – | – | – | – | – | – | –
N#Cc1nc2cc(F)c(F)cc2nc1-c1ccc(Cl)cc1 | 15 µM | > 100 µM | > 100 µM | 40.6 µM | > 48.2 µM | 50.1 µM | > 63.2 µM | > 100 µM | > 69.4 µM | 0.0614 µM | 39.3 µM | 82 µM | 14.4 µM | 13.5 µM | 16 µM | 6.17 µM | > 100 µM | 3.44 µM | 7.8 µM | 10.4 µM
Clc1ccc(SCCCCCCCCCCSc2ccc(Cl)cc2)cc1 | > 100 µM | > 100 µM | > 100 µM | > 69.3 µM | > 100 µM | 70.9 µM | > 100 µM | > 100 µM | > 96.6 µM | – | – | – | – | – | – | – | > 100 µM | – | – | –
CC1=C(C(=O)Nc2ccc(F)c(Cl)c2)C(c2cccc(Oc3ccccc3)c2)NC(=O)N1 (stereo not drawn) | 24.9 µM | 30.2 µM | 23.4 µM | 26.5 µM | 29.4 µM | 38.2 µM | 37.4 µM | 24.5 µM | 31.8 µM | 12 µM | 14.1 µM | 10.5 µM | 13.2 µM | 14.9 µM | 18.2 µM | 8.51 µM | 26.3 µM | 16.2 µM | 12 µM | 14.8 µM
CCCCCCCCCCCC[n+]1ccc(C(N)=O)cc1 | – | 26.2 µM | 19.5 µM | 3.05 µM | 8.38 µM | 14.4 µM | 16.3 µM | 13.1 µM | 12.8 µM | – | 10.1 µM | 4.85 µM | 1.63 µM | 2.33 µM | 3.16 µM | 1.34 µM | 4.86 µM | 3.43 µM | 2.18 µM | 2.55 µM
CS(=O)(=O)Nc1cc(-c2ccc3ncnc(Nc4ccc5c(cnn5Cc5ccccc5F)c4)c3c2)cnc1Cl | – | > 53.7 µM | 3.71 µM | 3.28 µM | 8.03 µM | > 35.9 µM | 11.3 µM | > 47.3 µM | 9.53 µM | 0.131 µM | 2.87 µM | 1.05 µM | 1.76 µM | 1.18 µM | 1.94 µM | 1.64 µM | 4.18 µM | 1.74 µM | 1.6 µM | 1.69 µM
CCOC1C=CCCO1 (stereo not drawn) | > 100 µM | > 100 µM | > 100 µM | > 100 µM | > 100 µM | > 100 µM | > 100 µM | > 100 µM | > 100 µM | – | – | – | – | – | – | – | > 100 µM | – | – | –
NCCCCN(Cc1nc2ccccc2[nH]1)[C@H]1CCCc2cccnc21 | 27.1 µM | 44.4 µM | > 51.8 µM | 27.8 µM | > 64.8 µM | > 100 µM | 44.4 µM | 34.1 µM | > 100 µM | 2.12 µM | 15.2 µM | 7.81 µM | 14.5 µM | 19.8 µM | 12.6 µM | 12 µM | 47.6 µM | 12.5 µM | 6.29 µM | 15.2 µM
COc1cc(/C=C2/C(=O)NC(Cc3cc(OC)c(OC)c(C)c3OC)C(=O)N2Cc2ccccc2)c(OC)c(C)c1OC (stereo not drawn) | 71.9 µM | > 100 µM | > 100 µM | > 100 µM | 60.2 µM | > 100 µM | > 100 µM | > 100 µM | > 100 µM | – | – | – | – | – | – | – | 91.4 µM | – | – | –
CNc1nc(N(C)C)nc(N(C)C)n1 | > 100 µM and 809 µM | > 100 µM and 3500 µM | > 100 µM and 2970 µM | > 100 µM and 2840 µM | > 100 µM and 3370 µM | > 100 µM and 4030 µM | 2530 µM | > 100 µM and 3650 µM | > 100 µM and 4800 µM | > 100 µM and 277 µM | > 100 µM and 2150 µM | > 100 µM and 1300 µM | > 100 µM and 1130 µM | > 100 µM and 874 µM | > 100 µM and 1870 µM | > 100 µM and 1500 µM | > 100 µM and 2940 µM | – | > 100 µM and 518 µM | > 100 µM and 2180 µM
C[CH2][Sn]([CH2]C)([O]C(=O)c1cccc(F)c1)[O][Sn]([CH2]C)([CH2]C)[O]C(=O)c1cccc(F)c1 | 30.1 µM | > 100 µM | 30.2 µM | > 100 µM | 2.65 µM | 30.9 µM | 33.8 µM | > 100 µM | 29.1 µM | 16.5 µM | > 100 µM | 16.5 µM | 31.7 µM | 1.32 µM | 17.2 µM | – | – | 18.8 µM | 35.4 µM | 15.3 µM
COc1ccc(/C=C/C(=O)c2cc3c(N)c(C(=O)Nc4ccccc4)sc3nc2C)cc1 | 14 µM | > 50 µM | 0.487 µM | 0.862 µM | 4.56 µM | 11.7 µM | 7.28 µM | > 26.6 µM | > 50 µM | 1.17 µM | 0.273 µM | 0.114 µM | 0.136 µM | 0.113 µM | 0.216 µM | 0.34 µM | > 10.8 µM | 0.55 µM | 0.179 µM | 0.752 µM
S=C(Nc1ccccc1)N(Cc1ccccc1)c1ccccc1 | > 100 µM | > 100 µM | 67.2 µM | 28.5 µM | 62.3 µM | > 100 µM | > 100 µM | 85.9 µM | 58.4 µM | – | – | – | – | – | – | – | > 100 µM | – | – | –
CC12CC3CC(C1)CC(N=[N+]=[N-])(C3)C2 | > 100 µM | > 100 µM | > 100 µM | > 100 µM | > 100 µM | > 100 µM | > 100 µM | > 100 µM | > 100 µM | – | – | – | – | – | – | – | > 100 µM | – | – | –
CCOC(=O)C#Cc1c(CC(=O)OCC)nnn1[C@H]1O[C@@H](CO)[C@@H]2OC(C)(C)O[C@@H]21 | 6.94 µM | 41.9 µM | 31.5 µM | 28.4 µM | 4.09 µM | 3.78 µM | 3.26 µM | 4.3 µM | 35.1 µM | 3 µM | 23.7 µM | 17.7 µM | 15 µM | 2.12 µM | 1.88 µM | 3.45 µM | 9.06 µM | 1.79 µM | 2.13 µM | 17.3 µM

From PubChem BioAssay (NCI)
